Measured values from paper PMC11648835 (Chemmedchem, 2024).
“Also recorded” adds a separate entry of the source.

Columns and labels:
[1] = test system: Mtb strain mc^26206 wild-type, hypoxic non-replicating; assay type: cell-based, Mycobacterium tuberculosis
[2] = test system: Mtb-infected human THP-1 macrophages; assay type: cell-based, Mycobacterium tuberculosis
[3] = test system: panel of bacteria consisting of S. aureus, E. faecium, E. coli, K. pneumoniae, A. baumannii and P. aeruginosa; assay type: cell-based
[4] = test system: Mycobacterium tuberculosis mc^26206 (WT); assay type: cell-based

Structure (SMILES) | intracellular anti-tuberculosis activity (in words) [2] | anti-tuberculosis activity against wild type Mtb (in words) [4] | also measured
COc1ccc2nc3ccc(=O)cc-3oc2c1 [Compound 6j, 7‐Methoxy‐3H‐phenoxazin‐3‐one] | – | – | time-kill kinetic assay under hypoxia (in words) [1]: inactive
O=c1ccc2nc3ccc(OCc4ccc([N+](=O)[O-])o4)cc3oc-2c1 [Compound 1, 7‐((5‐Nitrofuran‐2‐yl)methoxy)‐3H‐phenoxazin‐3‐one] | intracellular TB killing | – | time-kill kinetic assay under hypoxia (in words) [1]: inactive; activity against a panel of bacteria (in words) [3]: inactive
O=c1ccc2nc3ccc(O)cc3oc-2c1 [Compound 2, resorufin, reference compound] | – | no anti‐tuberculosis activity; also recorded: inactive | activity against a panel of bacteria (in words) [3]: inactive
O=c1ccc2nc3ccc(OCC4(CO)COC4)cc3oc-2c1 [Compound 6y, 7‐((3‐(Hydroxymethyl)oxetan‐3‐yl)methoxy)‐3H‐phenoxazin‐3‐one] | – | completely inactive | –
COCOc1ccc2nc3ccc(=O)c(I)c-3oc2c1 [Compound 8h, 4‐Iodo‐7‐(methoxymethoxy)‐3H‐phenoxazin‐3‐one] | intracellular TB killing | – | –
O=c1ccc2nc3ccc(OCCO)cc3oc-2c1 [Compound 6s, 7‐(2‐Hydroxyethoxy)‐3H‐phenoxazin‐3‐one] | – | completely inactive | –
O=c1ccc2nc3ccc(OCc4ccccc4)cc3oc-2c1 [Compound 6g, 7‐(Benzyloxy)‐3H‐phenoxazin‐3‐one] | – | no anti‐tuberculosis activity | –
O=c1ccc2nc3ccc(OCc4ccc([N+](=O)[O-])cc4)cc3oc-2c1 [Compound 6b, 7‐((4‐Nitrobenzyl)oxy)‐3H‐phenoxazin‐3‐one] | – | no anti‐tuberculosis activity | MIC90 Mtb WT [4]: >256 µM
COCCOc1ccc2nc3ccc(=O)cc-3oc2c1 [Compound 6i, 7‐(2‐Methoxyethoxy)‐3H‐phenoxazin‐3‐one] | intracellular TB killing | – | intracellular Mtb survival [2]: approximately 10%
